According to PMC6941823, “A dispensable paralog of succinate dehydrogenase subunit C mediates standing resistance towards a subclass of SDHI fungicides in Zymoseptoria tritici” (PLoS Pathogens, 2019):
Where two headings read alike, the source gives them in different places.

Columns and labels:
[1] = target: SQR (SDHC) of D024 SDHC3 KO mitochondria (Zymoseptoria tritici, UniProt F9X9V6+F9XH52+O42772); assay: Succinate-quinone (SQR) SDHI sensitivity assay on purified mitochondria, 06STD024 SDHC3 KO; assay type: biochemical; settings: for RF (resistance factor), D024 SDHC3 KO (SDHC): IC50 ratio compared to IPO323 values; for IC50: mitochondria of 06STD024 ZtSDHC3 deletion mutant, mean of three ± SD
Protocol: (§1) Succinate-ubiquinone oxidoreductase (SQR) inhibition assays were performed on mitochondrial extracts from a panel of strains that were (i) either carrying a unique C-subunit encoding gene (ZtSDHC1, ZtSDHC1_A84I or Zt-SDHC3), or (ii) carrying two C-subunit encoding genes ZtSDHC1 and ZtSDHC3 (Table 1).
(§2) Biomass production, mitochondrial extraction and purification were performed as described in [14]. Succinate: ubiquinone/DCPIP sensitivity tests were performed as described in [14] with minor modification. The different mitochondrial suspensions were adjusted to similar initial velocity (1 OD595nm hour^-1) and inhibitor concentrations ranged between 0.047nM and 50μM with uniform 4x dilution steps (11 concentrations + DMSO control). Calculated absorbance slopes (OD/min) were used for IC50 calculations using GraphPad Prism 6.07 software non-linear curve fitting against log inhibitor concentrations.

[2] = target: altC-SQR (altC) of D024 SDHC1 KO mitochondria (Zymoseptoria tritici, UniProt A0A1X7RQW2+F9X9V6+O42772); assay: Succinate-quinone (SQR) SDHI sensitivity assay on purified mitochondria, 06STD024 SDHC1 KO; assay type: biochemical; settings: for IC50: mitochondria of 06STD024 ZtSDHC1 deletion mutant (pure altC-SQR), mean of three ± SD; for RF (resistance factor), D024 SDHC1 KO (altC): IC50 ratio compared to IPO323 values
Protocol: as §1
(§3) Biomass production, mitochondrial extraction and purification were performed as described in [14]. Succinate: ubiquinone/DCPIP sensitivity tests were performed as described in [14] with minor modification.

[3] = target: WT-SQR (SDHC), IPO323 mitochondria (Zymoseptoria tritici, UniProt F9X9V6+F9XH52+O42772); assay: Succinate-quinone (SQR) SDHI sensitivity assay on purified mitochondria, IPO323; assay type: biochemical
Protocol: as §1, §2

[4] = target: SQR of 06STD024 (SDHC / altC) mitochondria (Zymoseptoria tritici, UniProt A0A1X7RQW2+F9X9V6+F9XH52+O42772); assay: Succinate-quinone (SQR) SDHI sensitivity assay on purified mitochondria, 06STD024; assay type: biochemical; settings: for IC50: mitochondria of field isolate 06STD024, mean of three ± SD; for RF (resistance factor), 06STD024 (SDHC / altC): IC50 ratio compared to IPO323 values
Protocol: as §1, §3

[5] = system: Zymoseptoria tritici field and genetically modified strains; assay: Liquid culture assay for fungicide sensitivity determination; assay type: cell-based; settings: Zymoseptoria tritici, liquid culture sensitivity
Protocol: Sensitivity towards commercial fungicides was determined for a set of 99 SHA-SDHI-naïve Z. tritici field isolates sampled in Europe between 2006 and 2009. The EC50 of these isolates was determined in liquid growth assays and the data obtained compared for each possible pair of SDHI fungicides (cross-resistance (XR) plots, Fig 1). […] Comparative succinate-quinone reductase (SQR) enzyme inhibition tests were performed with mitochondria extracted from a panel of SHA-SDHIs tolerant and sensitive isolates.
In order to characterize in more depth the mechanisms driving sensitivity differences across the isolates, a subset of eight isolates carrying the ZtSDHC3 gene was analyzed for their sensitivity to SDHIs, alt-SDHC expression and splicing patterns. Liquid culture growth sensitivity tests were performed to determine EC50s for this set of isolates towards a wide range of commercial and research SDHIs (S5 Table).
Pre-culture of the inoculum and fungicide sensitivity tests were performed following previously described procedures. Different ranges of inhibitor concentrations were used for population monitoring and for the detailed phenotyping of a selected set of individual field isolates and genetically modified strains. For fungicide sensitivity monitoring of European field populations, final inhibitors concentrations were between 100 mg.L^-1 and 0.0001 mg.L^-1 with uniform 10x dilution steps (7 inhibitor concentrations + DMSO control). For refined sensitivity analysis of a smaller panel of isolates final inhibitor concentrations ranged between 0.5 mM and 0.47 nM with uniform 4x dilution factor steps (11 inhibitor concentrations+ DMSO control).

[6] = system: SQR (SDHC / altC) of IPO323 pTet::SDHC3 transformant, induced; assay: Succinate-quinone (SQR) SDHI sensitivity assay on purified mitochondria, IPO323 pTet::SDHC3 induced; assay type: biochemical, Zymoseptoria tritici; settings: IPO323 pTet::SDHC3 transformant grown in the absence of doxycycline; mean of three ± SD
Protocol: as §1, §3

[7] = target: SQR (SDHC / altC) of IPO323 pTet::SDHC3 transformant, repressed (Zymoseptoria tritici, UniProt A0A1X7RQW2+F9X9V6+F9XH52+O42772); assay: Succinate-quinone (SQR) SDHI sensitivity assay on purified mitochondria, IPO323 pTet::SDHC3 repressed; assay type: biochemical; settings: for RF (resistance factor), pTet Repressed (SDHC / altC): IC50 ratio compared to IPO323 values; for IC50: IPO323 pTet::SDHC3 transformant grown in presence of 30 mg.L^-1 doxycycline, mean of three ± SD
Protocol: as §1, §3

Chain of SQR of 06STD024 (SDHC / altC) mitochondria (A0A1X7RQW2 36-181): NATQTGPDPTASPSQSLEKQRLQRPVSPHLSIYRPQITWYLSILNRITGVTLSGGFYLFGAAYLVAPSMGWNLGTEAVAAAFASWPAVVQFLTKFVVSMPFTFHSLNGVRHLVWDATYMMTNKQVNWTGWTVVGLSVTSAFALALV
Chain of SQR of 06STD024 (SDHC / altC) mitochondria (O42772 19-297): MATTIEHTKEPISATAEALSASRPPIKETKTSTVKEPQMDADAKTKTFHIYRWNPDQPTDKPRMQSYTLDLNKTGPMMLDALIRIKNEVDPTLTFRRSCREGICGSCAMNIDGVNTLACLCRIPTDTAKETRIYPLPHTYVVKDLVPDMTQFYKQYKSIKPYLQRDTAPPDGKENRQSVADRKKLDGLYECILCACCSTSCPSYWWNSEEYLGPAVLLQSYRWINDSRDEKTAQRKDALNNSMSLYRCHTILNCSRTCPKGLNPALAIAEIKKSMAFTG
Chain of SQR of 06STD024 (SDHC / altC) mitochondria (F9X9V6 1-193): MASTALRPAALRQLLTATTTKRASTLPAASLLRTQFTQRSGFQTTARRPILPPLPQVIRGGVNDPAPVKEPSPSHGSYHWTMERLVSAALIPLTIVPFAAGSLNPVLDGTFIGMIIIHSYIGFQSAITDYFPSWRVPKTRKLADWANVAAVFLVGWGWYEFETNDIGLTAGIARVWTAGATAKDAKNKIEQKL
Chain of SQR of 06STD024 (SDHC / altC) mitochondria (F9XH52 44-187): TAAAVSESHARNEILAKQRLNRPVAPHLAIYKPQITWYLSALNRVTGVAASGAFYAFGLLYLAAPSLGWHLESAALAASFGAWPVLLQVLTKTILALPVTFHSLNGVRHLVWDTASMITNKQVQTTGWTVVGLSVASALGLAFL
Chain of SQR of 06STD024 (SDHC / altC) mitochondria (F9WWR1 29-643 partner): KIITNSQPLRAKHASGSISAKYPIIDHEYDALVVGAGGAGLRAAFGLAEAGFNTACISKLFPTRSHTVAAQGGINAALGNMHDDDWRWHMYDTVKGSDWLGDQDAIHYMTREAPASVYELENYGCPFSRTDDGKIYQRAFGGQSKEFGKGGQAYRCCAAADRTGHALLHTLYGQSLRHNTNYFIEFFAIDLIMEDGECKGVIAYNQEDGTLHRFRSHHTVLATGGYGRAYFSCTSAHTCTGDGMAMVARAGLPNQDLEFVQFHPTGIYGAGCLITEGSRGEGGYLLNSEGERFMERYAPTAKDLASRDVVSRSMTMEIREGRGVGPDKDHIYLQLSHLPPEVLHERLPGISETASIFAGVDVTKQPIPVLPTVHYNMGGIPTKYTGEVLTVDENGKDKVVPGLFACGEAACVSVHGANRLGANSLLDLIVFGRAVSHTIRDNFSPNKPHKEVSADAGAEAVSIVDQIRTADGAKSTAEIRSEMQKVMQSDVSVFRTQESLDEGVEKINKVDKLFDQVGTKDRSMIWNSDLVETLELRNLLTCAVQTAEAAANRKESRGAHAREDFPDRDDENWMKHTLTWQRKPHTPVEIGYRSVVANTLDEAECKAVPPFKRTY
Chain of altC-SQR (altC) of D024 SDHC1 KO mitochondria (A0A1X7RQW2 36-181): as the sequence (A0A1X7RQW2 36-181) above
Chain of altC-SQR (altC) of D024 SDHC1 KO mitochondria (O42772 20-297): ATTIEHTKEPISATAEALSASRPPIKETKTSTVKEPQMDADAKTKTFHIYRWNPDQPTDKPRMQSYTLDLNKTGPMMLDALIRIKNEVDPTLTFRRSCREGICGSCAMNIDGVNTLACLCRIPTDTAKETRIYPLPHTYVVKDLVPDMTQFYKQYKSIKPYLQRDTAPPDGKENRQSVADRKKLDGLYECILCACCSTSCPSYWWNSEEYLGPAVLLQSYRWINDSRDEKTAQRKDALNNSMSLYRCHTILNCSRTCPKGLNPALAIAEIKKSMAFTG
Chain of altC-SQR (altC) of D024 SDHC1 KO mitochondria (F9X9V6 1-193): as the sequence (F9X9V6 1-193) above
Chain of altC-SQR (altC) of D024 SDHC1 KO mitochondria (F9WWR1 41-643 partner): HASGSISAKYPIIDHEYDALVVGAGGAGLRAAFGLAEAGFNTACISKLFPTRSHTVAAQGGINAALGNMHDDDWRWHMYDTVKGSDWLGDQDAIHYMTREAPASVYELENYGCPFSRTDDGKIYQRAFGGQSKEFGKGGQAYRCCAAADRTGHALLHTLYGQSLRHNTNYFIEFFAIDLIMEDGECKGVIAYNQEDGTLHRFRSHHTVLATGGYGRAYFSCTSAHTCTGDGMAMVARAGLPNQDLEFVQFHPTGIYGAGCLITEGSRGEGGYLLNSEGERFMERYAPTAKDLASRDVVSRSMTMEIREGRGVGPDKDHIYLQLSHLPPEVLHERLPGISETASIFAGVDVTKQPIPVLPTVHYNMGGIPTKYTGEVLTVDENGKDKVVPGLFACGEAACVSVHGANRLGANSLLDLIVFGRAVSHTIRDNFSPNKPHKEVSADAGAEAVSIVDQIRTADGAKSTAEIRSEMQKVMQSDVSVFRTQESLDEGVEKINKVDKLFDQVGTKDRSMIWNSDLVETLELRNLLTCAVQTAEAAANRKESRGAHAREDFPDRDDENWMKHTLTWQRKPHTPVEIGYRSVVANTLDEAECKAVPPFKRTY
Chain of WT-SQR (SDHC), IPO323 mitochondria (F9WWR1 entry or part of it): as the sequence (F9WWR1 29-643 partner) above
Chain of WT-SQR (SDHC), IPO323 mitochondria (F9X9V6 entry or part of it): as the sequence (F9X9V6 1-193) above
Chain of WT-SQR (SDHC), IPO323 mitochondria (O42772 19-297): as the sequence (O42772 19-297) above
Chain of WT-SQR (SDHC), IPO323 mitochondria (F9XH52 entry or part of it): as the sequence (F9XH52 44-187) above

CON(C(=O)c1cn(C)nc1C(F)F)[C@@H](C)Cc1ccc(Cl)cc1Cl [Compound 3]
RF (resistance factor), D024 SDHC3 KO (SDHC) [1]: 1.2
IC50 [1]: 0.8 ± 0.13 nM
IC50 [2]: 22.7 ± 0.8 nM
IC50 [3]: 0.7 ± 0.2 nM
IC50 [4]: 26.4 ± 1.2 nM

O=C(Nc1ccccc1-c1ccc(Cl)cc1)c1cccnc1Cl [Boscalid]
EC50 ([5]; read-out: EC50 (nM) Mean, strain 06STD024): 1180 nM
EC50 ([5]; read-out: EC50 (nM) Mean, strain 07STGB009): 514 nM
EC50 ([5]; read-out: EC50 (nM) Mean, strain 09STD041): 644 nM
EC50 ([5]; read-out: EC50 (nM) Mean, strain 09STD053): 512 nM
EC50 ([5]; read-out: EC50 (nM) Mean, strain 09STF011): 581 nM
EC50 ([5]; read-out: EC50 (nM) Mean, strain 09STF037): 591 nM
EC50 ([5]; read-out: EC50 (nM) Mean, strain 09STF112): 720 nM
EC50 ([5]; read-out: EC50 (nM) Mean, strain 09STIR20.3): 798 nM
EC50 ([5]; read-out: EC50 (nM) Mean, strain Flu21 (SDHC1_A84I)): 3020 nM
EC50 ([5]; read-out: EC50 (nM) Mean, strain IPO323): 384 nM
EC50 ([5]; read-out: EC50 (nM) Mean, strain IPO94269): 853 nM
EC50 ([5]; read-out: EC50 (nM) Mean, strain KO_SDHC1_T1): 2160 nM
EC50 ([5]; read-out: EC50 (nM) Mean, strain KO_SDHC1_T3): 2050 nM
EC50 ([5]; read-out: EC50 (nM) Mean, strain KO_SDHC3_T4): 637 nM
EC50 ([5]; read-out: EC50 (nM) Mean, strain KO_SDHC3_T13): 681 nM
EC50 ([5]; read-out: EC50 (nM) Mean, strain pTet::SDHC3_I78A_T1): 776 nM
EC50 ([5]; read-out: EC50 (nM) Mean, strain pTet::SDHC3_I78A_T5): 1680 nM
EC50 ([5]; read-out: EC50 (nM) Mean, strain pTet::SDHC3_I78A_T15): 768 nM
EC50 ([5]; read-out: EC50 (nM) Mean, strain pTet::SDHC3_I78A_T35): 270 nM
EC50 ([5]; read-out: EC50 (nM) Mean, strain pTet::SDHC3_T1): 1300 nM
EC50 ([5]; read-out: EC50 (nM) Mean, strain pTet::SDHC3_T2): 1420 nM
EC50 ([5]; read-out: EC50 (nM) Mean, strain pTet::SDHC3_T3): 1450 nM
EC50 ([5]; read-out: EC50 (nM) Mean, strain pTet::SDHC3_T7): 1460 nM
RF (resistance factor), D024 SDHC3 KO (SDHC) [1]: 1.0
IC50 [1]: 16.4 ± 2.4 nM
RF (resistance factor), D024 SDHC1 KO (altC) [2]: 3.2
IC50 [2]: 54.4 ± 12.9 nM
IC50 [3]: 17 ± 3.7 nM
IC50 [6]: 40.3 ± 2.7 nM
RF (resistance factor), pTet Repressed (SDHC / altC) [7]: 1.8
IC50 [7]: 29.8 ± 4 nM
RF (resistance factor), 06STD024 (SDHC / altC) [4]: 3.6
IC50 [4]: 61.9 ± 16 nM

CC(C)CC(C)c1sccc1NC(=O)c1cn(C)nc1C(F)(F)F (stereo not drawn) [Penthiopyrad]
RF (resistance factor), D024 SDHC3 KO (SDHC) [1]: 1.1
IC50 [1]: 1.5 ± 0.3 nM
RF (resistance factor), D024 SDHC1 KO (altC) [2]: 1.2
IC50 [2]: 1.6 ± 0.7 nM
IC50 [3]: 1.4 ± 0.3 nM
IC50 [6]: 1.8 ± 0.1 nM
RF (resistance factor), pTet Repressed (SDHC / altC) [7]: 1.4
IC50 [7]: 1.9 ± 0.4 nM
RF (resistance factor), 06STD024 (SDHC / altC) [4]: 1.4
IC50 [4]: 2 ± 0.8 nM
